Assay results reported in patent publication US20070004658A1, “Method and means for treatment of osteoarthritis” (priority 2004, published 2007).

Test system: Normal human articular chondrocytes (NHAC's)
Assay: Aggrecan induction, Alcian blue stain assay
Type: cell-based
Conditions: primary human chondrocytes 12 days post infection, FIG. 5
Procedure: A second assay to screen for chondrocyte anabolic factors is developed by monitoring the levels of aggrecan, another major constituent of cartilage. In this assay, glycosaminoglycans on aggrecan are stained by Alcian blue. NHACs are seeded in 384 well plates and 1 day after plating infected with individual Ad-siRNA from the SilenceSelect™ collection. […] Using Ad-BMP2 as a positive control, we confirm in a series of experiments that several parameters optimized for the ColII cELISA assay are also applicable for the Alcian blue stain assay for aggrecan. These parameters include cell seeding density, MOIs of control viruses, duration of infection, and the day of readout.
NHAC's are seeded on day 0 at 1500 cells/well of a 384 well black-plate with clear bottom in 60 μl of DMEM/F12, containing 10% FBS-HI and Pen/Strep and infected the next day with 2.5 μl of Ad-BMP2 or Ad-eGFP; at an MOI of 2000. After 7 days, 10 μl of a 50 μg/ml 2-Phospho-L-ascorbic acid in assay culture medium is added to each well. […] After replacing 50% ethanol/3% acetic acid with 70% ethanol/3% acetic acid, each individual well is photographed with a SONY CCD camera, images are analyzed using a Galapagos Alcian blue quantification algorithm based on the separation of the blue signal through a color threshold procedure after a noise reduction filter. […]

GGTGTATGGGCTCATGTAC (adenoviral siRNA, target sequence only, chemistry not fully specified) [Ad-siRNA targeting FZD1]
aggrecan levels (Alcian blue staining): does not seem to induce Alcian blue staining
